Active and inactive are the calls of the source. The calls are words filed in the database; no cut-off is given here.
Columns and labels:
Pseudomonas aeruginosa [1] = assay: Antibacterial activity against Pseudomonas aeruginosa ATCC27853 assessed as inhibition of bacterial growth by measuring minimum inhibitory concentration incubated for 18 to 20 hrs in presence of M9 medium by broth microdilution assay; assay type: functional; conditions: time 18-20 hrs
Pseudomonas aeruginosa [2] = assay: Antibacterial activity against multi-drug resistant Pseudomonas aeruginosa clinical isolate 1121 assessed as inhibition of bacterial growth by measuring minimum inhibitory concentration incubated for 18 to 20 hrs in presence of M9 medium by broth microdilution assay; assay type: functional; conditions: time 18-20 hrs
Pseudomonas aeruginosa [3] = assay: Antibacterial activity against Pseudomonas aeruginosa PAO1 assessed as inhibition of bacterial growth by measuring minimum inhibitory concentration incubated for 18 to 20 hrs in presence of MH medium by broth microdilution assay; assay type: functional; conditions: time 18-20 hrs
Pseudomonas aeruginosa [4] = assay: Antibacterial activity against Pseudomonas aeruginosa PAO1 assessed as inhibition of bacterial growth incubated for 18 to 20 hrs in presence of MH medium by broth microdilution assay; assay type: functional, organism-based
Klebsiella pneumoniae = assay: Antibacterial activity against Klebsiella pneumoniae ATCC 700603 assessed as inhibition of bacterial growth by measuring minimum inhibitory concentration incubated for 18 to 20 hrs in presence of M9 medium by broth microdilution assay; assay type: functional; conditions: time 18-20 hrs
Pseudomonas aeruginosa [5] = assay: Antibacterial activity against Pseudomonas aeruginosa PAO1 assessed as inhibition of bacterial growth by measuring minimum inhibitory concentration incubated for 18 to 20 hrs in presence of M9 medium by broth microdilution assay; assay type: functional; conditions: time 18-20 hrs
Pseudomonas aeruginosa [6] = assay: Antibacterial activity against Pseudomonas aeruginosa PAO1 assessed as inhibition of bacterial growth incubated for 18 to 20 hrs in presence of M9 and FeCl3 medium by broth microdilution assay; assay type: functional, organism-based
Pseudomonas aeruginosa [7] = assay: Antibacterial activity against multi-drug resistant Pseudomonas aeruginosa clinical isolate 1167 assessed as inhibition of bacterial growth by measuring minimum inhibitory concentration incubated for 18 to 20 hrs in presence of M9 medium by broth microdilution assay; assay type: functional; conditions: time 18-20 hrs
Pseudomonas aeruginosa [8] = assay: Antibacterial activity against Pseudomonas aeruginosa PAO1 assessed as inhibition of bacterial growth by measuring minimum inhibitory concentration incubated for 18 to 20 hrs in presence of M9 and FeCl3 medium by broth microdilution assay; assay type: functional; conditions: time 18-20 hrs
Pseudomonas aeruginosa [9] = assay: Antibacterial activity against multi-drug resistant Pseudomonas aeruginosa clinical isolate 1129 assessed as inhibition of bacterial growth by measuring minimum inhibitory concentration incubated for 18 to 20 hrs in presence of M9 medium by broth microdilution assay; assay type: functional; conditions: time 18-20 hrs
Staphylococcus aureus [10] = assay: Antibacterial activity against Staphylococcus aureus ATCC 25923 assessed as inhibition of bacterial growth incubated for 18 to 20 hrs in presence of M9 medium by broth microdilution assay; assay type: functional, organism-based; conditions: time 18-20 hrs
Escherichia coli = assay: Antibacterial activity against Escherichia coli ATCC 25922 assessed as inhibition of bacterial growth by measuring minimum inhibitory concentration incubated for 18 to 20 hrs in presence of M9 medium by broth microdilution assay; assay type: functional; conditions: time 18-20 hrs
Pseudomonas aeruginosa [11] = assay: Antibacterial activity against multi-drug resistant Pseudomonas aeruginosa clinical isolate FB assessed as inhibition of bacterial growth by measuring minimum inhibitory concentration incubated for 18 to 20 hrs in presence of M9 medium by broth microdilution assay; assay type: functional; conditions: time 18-20 hrs
Staphylococcus aureus [12] = assay: Antibacterial activity against Staphylococcus aureus ATCC 25923 assessed as inhibition of bacterial growth by measuring minimum inhibitory concentration incubated for 18 to 20 hrs in presence of M9 medium by broth microdilution assay; assay type: functional; conditions: time 18-20 hrs
Pseudomonas aeruginosa [13] = assay: Antibacterial activity against Pseudomonas aeruginosa PAO1 assessed as inhibition of bacterial growth incubated for 18 to 20 hrs in presence of M9 medium by broth microdilution assay; assay type: functional, organism-based
Vero = assay: Cytotoxicity against green monkey Vero cells assessed as reduction in cell viability at 1 to 32 ug/ml incubated for 24 hrs by MTT assay; assay type: toxicity, cell-based; conditions: chlorocebus sabaeus, dose 1-32 µg/ml
Pseudomonas aeruginosa [14] = assay: Antibacterial activity against Pseudomonas aeruginosa PAO1 infected in Caenorhabditis elegans assessed as increase in worm survival rate at 32 ug/ml incubated for 60 hrs; assay type: functional, organism-based; conditions: dose 32.0 µg/ml
Staphylococcus aureus [15] = assay: Bactericidal activity against Staphylococcus aureus ATCC 25923 assessed as inhibition of bacterial growth at 2 times MIC incubated upto 24 hrs by time-kill based microplate reader assay; assay type: functional, organism-based
Pseudomonas aeruginosa [16] = assay: Antibacterial activity against Pseudomonas aeruginosa PAO1 assessed as inhibition of bacterial growth at 32 ug/ml incubated upto 24 hrs by time-kill based microplate reader assay; assay type: functional, organism-based; conditions: dose 32.0 µg/ml

SMILES | MIC (Pseudomonas aeruginosa [1]) | MIC (Pseudomonas aeruginosa [2]) | MIC (Pseudomonas aeruginosa [3]) | IC50 (Pseudomonas aeruginosa [4]) | MIC (Klebsiella pneumoniae) | MIC (Pseudomonas aeruginosa [5]) | IC50 (Pseudomonas aeruginosa [6]) | MIC (Pseudomonas aeruginosa [7]) | MIC (Pseudomonas aeruginosa [8]) | MIC (Pseudomonas aeruginosa [9]) | Activity (Staphylococcus aureus [10]) | MIC (Escherichia coli) | MIC (Pseudomonas aeruginosa [11]) | MIC (Staphylococcus aureus [12]) | IC50 (Pseudomonas aeruginosa [13]) | Activity (Vero) | Activity (Pseudomonas aeruginosa [14]) | Activity (Staphylococcus aureus [15]) | Activity (Pseudomonas aeruginosa [16])
CC(C)=CCc1c(O)ccc(C(=O)/C=C/c2ccc(OCCCCCCOCc3c(O)c(=O)cc(C)n3C)cc2)c1O | 32 µg/mL | 8 µg/mL | > 128 µg/mL | 10.2 µg/mL | > 128 µg/mL | 32 µg/mL | > 128 µg/mL | 16 µg/mL | > 128 µg/mL | 8 µg/mL | inactive | > 128 µg/mL | 32 µg/mL | > 128 µg/mL | 7.87 µg/mL | – | – | – | –
CC(C)=CCc1c(OCCCCn2cc(COCc3c(O)c(=O)cc(C)n3C)nn2)ccc(C(=O)/C=C/c2ccc(O)cc2)c1O | 32 µg/mL | 8 µg/mL | 64 µg/mL | 29.4 µg/mL | > 128 µg/mL | 32 µg/mL | > 128 µg/mL | 32 µg/mL | > 128 µg/mL | 16 µg/mL | – | > 128 µg/mL | 16 µg/mL | 32 µg/mL | 3.64 µg/mL | – | – | – | –
CC(C)=CCc1c(OCCCCn2cc(COCc3cc(=O)c(O)cn3C)nn2)ccc(C(=O)/C=C/c2ccc(O)cc2)c1O | 32 µg/mL | 8 µg/mL | 32 µg/mL | 17.8 µg/mL | > 128 µg/mL | 16 µg/mL | > 128 µg/mL | 16 µg/mL | > 128 µg/mL | 16 µg/mL | – | > 128 µg/mL | 16 µg/mL | 32 µg/mL | 2.55 µg/mL | – | – | – | –
CC(C)=CCc1c(O)ccc(C(=O)/C=C/c2ccc(OCCCCCCOCc3cc(=O)c(O)cn3C)cc2)c1O | 32 µg/mL | 8 µg/mL | 16 µg/mL | 7.31 µg/mL | > 128 µg/mL | 16 µg/mL | > 128 µg/mL | 8 µg/mL | > 128 µg/mL | 8 µg/mL | inactive | > 128 µg/mL | 16 µg/mL | > 128 µg/mL | 3.39 µg/mL | – | – | – | –
CCn1cc(C(=O)O)c(=O)c2cc(F)c(N3CCNCC3)cc21 [NORFLOXACIN] | 1 µg/mL | 0.5 µg/mL | 0.125 µg/mL | 0.03 µg/mL | 2 µg/mL | 0.25 µg/mL | 0.07 µg/mL | 0.25 µg/mL | 0.25 µg/mL | 1 µg/mL | – | 0.015 µg/mL | 0.5 µg/mL | 2 µg/mL | 0.08 µg/mL | – | – | – | –
CC(C)=CCc1c(O)ccc(C(=O)/C=C/c2ccc(OCCCOCc3c(O)c(=O)cc(C)n3C)cc2)c1O | 32 µg/mL | 16 µg/mL | 32 µg/mL | 16.2 µg/mL | > 128 µg/mL | 16 µg/mL | > 128 µg/mL | 8 µg/mL | > 128 µg/mL | 16 µg/mL | – | > 128 µg/mL | 16 µg/mL | 32 µg/mL | 3.27 µg/mL | – | – | – | –
CC(C)=CCc1c(OCCCCCC(=O)NCc2cc(=O)c(O)cn2C)ccc(C(=O)/C=C/c2ccc(O)cc2)c1O | 32 µg/mL | 8 µg/mL | 32 µg/mL | 19.7 µg/mL | > 128 µg/mL | 16 µg/mL | > 128 µg/mL | 8 µg/mL | > 128 µg/mL | 16 µg/mL | – | > 128 µg/mL | 16 µg/mL | 32 µg/mL | 1.72 µg/mL | – | – | – | –
CC(C)=CCc1c(O)ccc(C(=O)/C=C/c2ccc(O)cc2)c1O [ISOBAVACHALCONE] | > 128 µg/mL | > 128 µg/mL | > 128 µg/mL | > 128 µg/mL | > 128 µg/mL | > 128 µg/mL | > 128 µg/mL | > 128 µg/mL | > 128 µg/mL | > 128 µg/mL | – | > 128 µg/mL | > 128 µg/mL | 4 µg/mL | > 128 µg/mL | Non-Toxic | inactive | Active | inactive
CC1(C)S[C@@H]2[C@H](NC(=O)[C@H](N)c3ccccc3)C(=O)N2[C@H]1C(=O)O [AMPICILLIN] | > 128 µg/mL | > 128 µg/mL | 32 µg/mL | 12.6 µg/mL | > 128 µg/mL | 32 µg/mL | 6.06 µg/mL | > 128 µg/mL | 32 µg/mL | > 128 µg/mL | – | 8 µg/mL | > 128 µg/mL | 0.25 µg/mL | 12.7 µg/mL | – | – | – | –
CC(C)=CCc1c(O)ccc(C(=O)/C=C/c2ccc(OCCCCCC(=O)NCc3cc(=O)c(O)cn3C)cc2)c1O | 32 µg/mL | 16 µg/mL | 32 µg/mL | 19.4 µg/mL | > 128 µg/mL | 16 µg/mL | > 128 µg/mL | 32 µg/mL | > 128 µg/mL | 32 µg/mL | – | > 128 µg/mL | 16 µg/mL | 32 µg/mL | 1.46 µg/mL | – | – | – | –
